The values that follow come from US4211772A, “Benzopyran glycoside acetals and ketals” (Laboratoires Sarget, priority 1977, dated 1980).

Series [1] has as its system aldose reductase. The note with it: prior art statement; cited from earlier work.
The target of series [2] is T1, Aldose Reductase (Bos taurus, UniProt P16116).
T1 construct: The enzyme is extracted from beef eye lenses; from tissue; host or cells: beef eye lenses
Description: Inhibition of aldose reductase in vitro (enzyme from beef eye lenses, glyceraldehyde substrate). Format: biochemical. The note with it: in DMF solution. An excerpt: Inhibition of Aldose Reductase In Vitro
The reoxidation of NADPH coupled to the enzymatic reaction was followed spectrophotometrically at 340 nm.

Series [3] deals with T2, COMT (Rattus norvegicus, UniProt P22734).
T2 construct: The enzyme is extracted from rat liver; from tissue; host or cells: rat liver
T2 sequence (P22734 1-221 isoform P22734-2): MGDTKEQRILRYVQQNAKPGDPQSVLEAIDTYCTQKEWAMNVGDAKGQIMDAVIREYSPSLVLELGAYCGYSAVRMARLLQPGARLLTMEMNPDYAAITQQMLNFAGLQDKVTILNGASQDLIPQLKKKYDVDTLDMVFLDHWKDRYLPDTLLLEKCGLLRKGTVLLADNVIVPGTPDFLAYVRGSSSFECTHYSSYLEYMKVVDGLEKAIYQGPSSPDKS
Description: Inhibition of COMT in vitro (enzyme from rat liver, 4-nitrocatechol substrate). Format: biochemical. To be noted: in dimethylsulfoxide solution, read-out: percentages of inhibition (COMT). As for the experimental part:
Inhibition of COMT in vitro The enzyme is extracted from rat liver by the method described by Axelrod et al, J. Biol. Chem., 233, 702(1958); its activity is measured in the presence of S-adenosyl methionine and using as substrate 4-nitrocatechol by the method described by Lee et al, J. Pharm. Sci., 66(7), 986(1977). The quantity of 4-nitrocatechol consumed was determined spectrophotometrically at 520 nm in alkaline medium.

Series [4] is described as follows: Solubilities in water. The note with it: water. Format: physicochemical.
In series [5] the test system is carragenin edema. Description: Anti-inflammatory activity: carragenin edema test. Format: in vivo. The note with it: Rattus norvegicus, ip, substantially alkaline pH solution, read-out: % inhibition of carragenin edema; for inhibition in vivo at 100 mg/kg: 100 mg/kg i.p.; for inhibition in vivo at 200 mg/kg: 200 mg/kg i.p.; for inhibition in vivo at 300 mg/kg: 300 mg/kg i.p. The procedure, abridged:
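Male Wistar EOPS rats receive 0.1 ml of 5% carragenin suspension in physiological serum into the hind-paw metatarsal muscle, with test substance given i.p. in neutralized solution at the same time. Paw edema is measured by plethysmometry at several times after carragenin and reported as % inhibition against pH-matched physiological serum controls.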

Series [6] is described as follows: i.p. toxicity in Swiss EOPS mice, mortality at 14 days. To be noted: mouse, in vivo, ip, DMSO solution at 1/2, read-out: percentages of mortality at the end of 14 days. How it is done:
The i.p. toxicities of certain compounds of the present invention were determined using male and female Swiss EOPS mice for administrations in DMSO solution at 1/2 under a volume of P/100.

The subject of series [7] is capillary permeability. Description: Capillaroprotecting effects: capillary permeability. Format: in vivo, conventional male Wistar rats. As for the experimental part: (§1) Capillaroprotecting effects
The capillary permeability was determined by the method of Charlier et al, Arch. Inter. Physiol.

Series [8] relates to capillary resistance. Put plainly: Capillaroprotecting effects: capillary resistance. Format: in vivo, male OFA EOPS rats. How it is done:
as §1
The capillary resistance was determined by a variant of the method of Charlier et al, Arch. Inter. Physiol.

Setting [9] is: read-out: Solubilities in water.

For orientation: inhibition means the relative decrease from the control value, in per cent. The mortality is the share of the test organisms that died.

≈ marks a conversion by molar mass, not a printed value. Like-named read-outs stand apart in the source and are kept apart here.

Turning to `C[C@@H]1O[C@@H](OC[C@H]2O[C@@H](Oc3c(-c4ccc(O)c(O)c4)oc4cc(OCCO)cc(O)c4c3=O)[C@H](O)[C@@H](O)[C@@H]2O)[C@H](O)[C@H](O)[C@H]1O` [7-O-hydroxyethyl rutin], in series [1], the “inhibition of aldose reductase in vitro (in words)” value (“inhibition of aldose reductase” for short) was “practically inactive”.
In the case of `C[C@@H]1O[C@@H](OC[C@H]2O[C@@H](Oc3c(-c4ccc(O)c(O)c4)oc4cc(O)cc(O)c4c3=O)[C@H](O)[C@@H](O)[C@@H]2O)[C@H](O)[C@H](O)[C@H]1O` [Rutin, rutin, reference compound], the “percentages of inhibition (aldose reductase)” value in series [2] (5.10^-6 mole/l) is 0%. In addition, in series [1], the “inhibition of aldose reductase” value is listed as “inhibits aldose reductase in vitro”. Moreover, the inhibition at 1000 µM in series [3] (10^-3 mole/l) was 63 to 68%. Besides, the inhibition at 10 µM in series [3] (10^-5 mole/l) came out at 13%. The compound further had a solubility in series [4] of 120 µg/mL (≈ 197 µM).
Turning to `C[C@@H]1O[C@@H](OC[C@H]2O[C@@H](Oc3c(-c4ccc(OCCO)c(OCCO)c4)oc4cc(OCCO)cc(O)c4c3=O)[C@H](O)[C@@H](O)[C@@H]2O)[C@H](O)[C@H](O)[C@H]1O` [7, 3', 4'-tri-O-hydroxyethyl rutin], the “inhibition of aldose reductase” value in series [1] was “practically inactive”.
Take `COc1ccc(C2CC(=O)c3c(O)cc(O[C@@H]4O[C@H](CO[C@@H]5O[C@@H](C)[C@H](O)[C@H]6OC(C)(C)O[C@@H]56)[C@@H](O)[C@H](O)[C@H]4O)cc3O2)cc1O` (stereo partly drawn) [No. 18, 7-O-(2,3-O,O-isopropylidene-6-α-L-rhamnosyl-β-D-glucosyl)hesperitin]: the inhibition in vivo at 100 mg/kg in series [5] (1/2 h) worked out at 0%; in series [5] (1 h, 1 h 1/2), 17%; in series [5] (1 h, 1 h) it was 0%; in series [5] (2 h, 2 h) it was 16%; in series [5] (3 h, 3 h), 13%; in series [5] (4 h, 4 h) it was 20%. For the same compound, the inhibition in vivo at 100 mg/kg came to 21% in series [5] (5 h, 5 h) and 27% in series [5] (6 h, 6 h). Besides, the inhibition in vivo at 200 mg/kg was 0% in series [5] (1/2 h); 39% in series [5] (1 h, 1 h 1/2); 18% in series [5] (1 h, 1 h); 42% in series [5] (2 h, 2 h); 46% in series [5] (3 h, 3 h); 52% in series [5] (4 h, 4 h). The inhibition in vivo at 200 mg/kg turned out to be 50% in series [5] (5 h, 5 h) and 55% in series [5] (6 h, 6 h). The inhibition in vivo at 300 mg/kg in series [5] (1/2 h) was determined as 0%; in series [5] (1 h, 1 h 1/2) it was 27%; in series [5] (1 h, 1 h), 0%; in series [5] (2 h, 2 h), 27%; in series [5] (3 h, 3 h), 21%; in series [5] (4 h, 4 h), 26%. Also, the inhibition in vivo at 300 mg/kg in series [5] (5 h, 5 h) was found to be 16%; in series [5] (6 h, 6 h), 16%. Also, the mortality at 336 h in series [6] (1000 mg/kg i.p.) and in series [6] (2000 mg/kg i.p.) was 0% each time. The solubility in series [4] (setting [9]) worked out at 900 µg/mL (≈ 1380 µM). Also, the “percentage reduction of capillary permeability” value was determined as 24% in series [7] (10 mg/kg i.p.), 21% in series [7] (50 mg/kg i.p.) and 8% in series [7] (75 mg/kg i.p.).
With `O=c1ccc2cc(O[C@@H]3O[C@@H]4COC5(CCCCC5)O[C@H]4[C@H](O)[C@H]3O)c(O)cc2o1` [No. 16, 6-O-(4,6-O,O-cyclohexylidene-β-D-glucosyl) esculetol], the inhibition at 100 µM in series [2] (10^-4 mole/l, read-out: percentages of inhibition (aldose reductase)) came to 63%. In series [2] (10^-5 mole/l, read-out: percentages of inhibition (aldose reductase)), the inhibition at 10 µM amounted to 14%. Besides, the inhibition in vivo at 200 mg/kg in series [5] (1/2 h) worked out at 59%; in series [5] (1 h, 1 h 1/2), 45%; in series [5] (1 h, 1 h) it was 59%; in series [5] (2 h, 2 h), 46%; in series [5] (3 h, 3 h), 30%; in series [5] (4 h, 4 h), 23%. Besides, the inhibition in vivo at 200 mg/kg in series [5] (5 h, 5 h) turned out to be 27%; in series [5] (6 h, 6 h) it was 24%. For the same compound, the results for the mortality at 336 h in series [6] (500 mg/kg i.p.), in series [6] (750 mg/kg i.p.) and in series [6] (1000 mg/kg i.p.) were 10%, 80% and 80%, respectively. The solubility in series [4] (setting [9]) came out at 1250 µg/mL (≈ 2970 µM). Moreover, the “capillary resistance, effect observed” value in series [8] (25 mg/kg i.p.) is 8.8 ± 6.8 u cm Hg/h; in series [8] (50 mg/kg i.p.), 23 ± 11.1 u cm Hg/h.
`C[C@@H]1O[C@@H](OC[C@H]2O[C@@H](Oc3c(-c4ccc(OCCO)c(OCCO)c4)oc4cc(OCCO)cc(OCCO)c4c3=O)[C@H](O)[C@@H](O)[C@@H]2O)[C@H](O)[C@H](O)[C@H]1O` [5,7, 3', 4'-tetra-O-hydroxyethyl rutin]: the “inhibition of aldose reductase” value in series [1] was “practically inactive”.
